Literature values in patent US20060074243A1, “Hydroxamic acid and amide compounds and their use as protease inhibitors” (Pharmacia Corporation, priority 2002, published 2006).

System: solid tumor cancers (colorectal, pancreatic, ovarian, and prostate)
Conditions: cited from earlier work

In the case of `CNC(=O)[C@@H](NC(=O)[C@H](CC(C)C)[C@H](O)C(=O)NO)C(C)(C)C` [Marimastat], the “most common drug-related toxicity” value (clinical trials) is given as “musculoskeletal pain and stiffness” and the “rise of cancer-specific antigens used as surrogate markers for biological activity” value (patients with advanced, rapidly progressive, treatment-refractory solid tumor cancers) is given as “dose-related reduction”.
